Laboratory results as given in patent US20260354380A1, “PYRAZOLO PESTICIDAL COMPOUNDS” (BASF SE, priority 2022, published 2026).
Where two headings read alike, the source gives them in different places.

Columns and labels:
Format in all cases: in vivo
Aedes aegypti = experiment: whole plant or invertebrate; settings: for mortality in comparison with untreated controls: 800 ppm, larvae, 2 days; for mortality at 800 ppm: Aedes aegypti, 48 h, read-out: mortality in comparison with untreated controls
In short: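 Visual larval mortality was assessed 2 days after treatment (28±1 °C, 80±5% RH). Formulations of compounds or mixtures (75% water/25% DMSO) were applied by micro-atomizer onto diet of 5-15 newly hatched larvae per water-filled well, two replicates per concentration.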

Dichromothrips corbetti = experiment: Action on Orchid Thrips (Dichromothrips corbetti); settings: for mortality at 300 ppm: Dichromothrips corbetti, read-out: mortality in comparison with untreated controls
Method: Example B2: Action on Orchid Thrips (Dichromothrips corbetti)
Dichromothrips corbetti adults used for bioassay were obtained from a colony maintained continuously under laboratory conditions. For testing purposes, the test compound is diluted in a 1:1 mixture of acetone: water (vol: vol), plus Kinetic® HV at a rate of 0.01% v/v.
Thrips potency of each compound was evaluated by using a floral-immersion technique. All petals of individual, intact orchid flowers were dipped into treatment solution and allowed to dryin Petri dishes. Treated petals were placed into individual re-sealable plastic along with about 20 adult thrips. All test arenas were held under continuous light and a temperature of about 28 °C for duration of the assay. After 3 days, the numbers of live thrips were counted on each petal. The percent mortality was recorded 72 hours after treatment.

Anthonomus grandis = experiment: Action on Boll Weevil (Anthonomus grandis); settings: for mortality at 800 ppm: Anthonomus grandis, 120 h, read-out: mortality in comparison with untreated controls
In short: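 Diet in 96-well plates, seeded with 5-10 A. grandis eggs, received a spray of formulated compound (25% DMSO in water) at a range of concentrations, duplicated. Mortality of eggs and larvae was judged by eye after 5 days at about 25±1 °C, 75±5% relative humidity.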

Heliothis virescens = experiment: Action on Tobacco Budworm (Heliothis virescens); settings: for mortality at 800 ppm: Heliothis virescens, 120 h, read-out: mortality in comparison with untreated controls
In short: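 Eggs (15-25 per well) on diet were held 5 days at about 28±1 °C, 80±5% RH, then egg and larval mortality was scored by eye. Beforehand the diet had been sprayed with compound dilutions formulated in water/DMSO 75:25 v/v, in two replicates.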

Plutella xylostella [1] = experiment: Action on Diamond Back Moth (Plutella xylostella), cabbage leaf dip, 3rd instar larvae; settings: for mortality at 300 ppm: read-out: mortality in comparison with untreated controls
In short: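 Cabbage leaves dipped in compound solution (1:1 water:acetone, 0.01% v/v surfactant), air-dried, then infested with ten 3rd-instar larvae in petri dishes on moist filter paper. Mortality scored at 72 h after treatment; feeding damage rated on a 0–100% scale.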

Spodoptera eridania = experiment: Action on Southern Armyworm (Spodoptera eridania), 2nd Instar Larvae; settings: for mortality at 300 ppm: read-out: mortality in comparison with untreated controls
In short: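 2nd-instar Spodoptera eridania larvae (about 10–11 per pot) confined on sprayed, dried Lima bean plants (1st true leaf stage) in sealed bags. Spray solutions: acetone/water 1:1 plus 0.01% surfactant. Held 4 days near 25 °C, 20–40% RH; assessed for mortality and feeding reduction against untreated controls.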

Plutella xylostella [2] = experiment: Action on Diamond Back Moth (Plutella xylostella), microtiter plates, insect diet, eggs; settings: 800 ppm; egg and larval mortality; 5 days
In short: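 Diet in 96-well plates with 15–25 P. xylostella eggs, sprayed with compound formulated in 75% water/25% DMSO at several concentrations, two replicates; mixtures combined in equal volumes. Incubated 5 days at 28±1 °C, 80±5% RH, then egg and larval mortality scored visually.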

[3] = 300 ppm, adults, 72 hours after treatment
[4] = 800 ppm, egg and larval mortality, 5 days
[5] = 300 ppm, 3rd instar larvae, 72 hours after treatment
[6] = 300 ppm, 2nd instar larvae, 4 days after treatment
[7] = Plutella xylostella, foliar, 72 h
[8] = Plutella xylostella, foliar, 300 ppm, 3rd instar larvae, 72 hours after treatment
[9] = Spodoptera eridania, 96 h, 300 ppm, 2nd instar larvae, 4 days after treatment

Structure (SMILES): Cc1ccc(C(C)C)c(N2C(=O)CS/C2=N\C(=O)Nc2ccc(-n3nc(C)c(NC(=O)c4ccc(OC(F)(F)F)cc4)c3C)cc2OC(F)F)c1 [Example C-20]
- mortality in comparison with untreated controls (Aedes aegypti): at least 50%
- mortality in comparison with untreated controls (Dichromothrips corbetti; [3]): at least 75%
- mortality in comparison with untreated controls (Anthonomus grandis; [4]): at least 75%
- mortality in comparison with untreated controls (Heliothis virescens; [4]): at least 75%
- mortality in comparison with untreated controls (Plutella xylostella [1]; [5]): at least 75%
- mortality in comparison with untreated controls (Spodoptera eridania; [6]): at least 75%

Structure (SMILES): Cc1ccc(C(C)C)c(NC(=S)NC(=O)Nc2ccc(-n3nc(C)c(NC(=O)c4ccc(OC(F)(F)F)cc4)c3C)cc2Cl)c1 [Example C-125]
- mortality in comparison with untreated controls (Aedes aegypti): at least 50%
- mortality in comparison with untreated controls (Dichromothrips corbetti; [3]): at least 75%
- mortality in comparison with untreated controls (Anthonomus grandis; [4]): at least 75%
- mortality in comparison with untreated controls (Heliothis virescens; [4]): at least 75%
- mortality in comparison with untreated controls (Spodoptera eridania; [6]): at least 75%
- mortality in comparison with untreated controls (Plutella xylostella [2]): at least 75%

Structure (SMILES): Cc1nn(-c2ccc(NC(=O)/N=C3\SCC(=O)N3c3cc(C4CC4)ccc3C(C)C)c(F)c2)cc1NC(=O)c1ccc(OC(F)(F)F)cc1 [Example C-7]
- mortality in comparison with untreated controls (Aedes aegypti): at least 50%
- mortality in comparison with untreated controls (Dichromothrips corbetti; [3]): at least 75%
- mortality in comparison with untreated controls (Anthonomus grandis; [4]): at least 75%
- mortality in comparison with untreated controls (Heliothis virescens; [4]): at least 75%
- mortality in comparison with untreated controls (Plutella xylostella [1]; [5]): at least 75%
- mortality in comparison with untreated controls (Spodoptera eridania; [6]): at least 75%

Structure (SMILES): Cc1nn(-c2ccc(NC(=O)N=C3SCC(=O)N3c3cc(C#N)ccc3C(C)C)cc2)cc1NC(=O)c1ccc(OC(F)(F)F)cc1 [Example C-10]
- mortality in comparison with untreated controls (Aedes aegypti): at least 50%
- mortality in comparison with untreated controls (Dichromothrips corbetti; [3]): at least 75%
- mortality in comparison with untreated controls (Anthonomus grandis; [4]): at least 75%
- mortality in comparison with untreated controls (Heliothis virescens; [4]): at least 75%
- mortality in comparison with untreated controls (Plutella xylostella [1]; [5]): at least 75%
- mortality in comparison with untreated controls (Spodoptera eridania; [6]): at least 75%

Structure (SMILES): Cc1ccc(C(C)C)c(N2C(=O)CSC2=NC(=O)Nc2ccc(-n3cc(NC(=O)c4ccc(OC(F)(F)F)cc4)c(C)n3)cc2)c1 [Example C-9]
- mortality in comparison with untreated controls (Aedes aegypti): at least 50%
- mortality in comparison with untreated controls (Dichromothrips corbetti; [3]): at least 75%
- mortality in comparison with untreated controls (Anthonomus grandis; [4]): at least 75%
- mortality in comparison with untreated controls (Heliothis virescens; [4]): at least 75%
- mortality in comparison with untreated controls (Plutella xylostella [1]; [5]): at least 75%
- mortality in comparison with untreated controls (Spodoptera eridania; [6]): at least 75%

Structure (SMILES): Cc1ccc(C(C)C)c(N2C(=O)CS/C2=N\C(=O)Nc2ccc(-n3cc(NC(=O)c4ccc(F)c(F)c4)c(C)n3)cc2)c1 [Example C-25]
- mortality in comparison with untreated controls (Aedes aegypti): at least 50%
- mortality in comparison with untreated controls (Dichromothrips corbetti; [3]): at least 75%
- mortality in comparison with untreated controls (Anthonomus grandis; [4]): at least 75%
- mortality in comparison with untreated controls (Heliothis virescens; [4]): at least 75%
- mortality in comparison with untreated controls (Plutella xylostella [1]; [5]): at least 75%
- mortality in comparison with untreated controls (Spodoptera eridania; [6]): at least 75%

Structure (SMILES): Cc1ccc(C(C)C)c(N2C(=O)CS/C2=N\C(=O)Nc2ccc(-n3nc(C)c(NC(=O)c4ccc(OC(F)(F)F)cc4)c3C)cc2Br)c1 [Example C-19]
- mortality in comparison with untreated controls (Aedes aegypti): at least 50%
- mortality in comparison with untreated controls (Dichromothrips corbetti; [3]): at least 75%
- mortality in comparison with untreated controls (Anthonomus grandis; [4]): at least 75%
- mortality in comparison with untreated controls (Heliothis virescens; [4]): at least 75%
- mortality in comparison with untreated controls (Plutella xylostella [1]; [5]): at least 75%
- mortality in comparison with untreated controls (Spodoptera eridania; [6]): at least 75%

Structure (SMILES): Cc1ccc(C(C)C)c(N2C(=O)CS/C2=N\C(=O)Nc2ccc(-n3nc(C)c(N(C)C(=O)c4ccc(OC(F)(F)F)cc4)c3Cl)cc2)c1 [Example C-3, N-[5-chloro-1-[4-[[(Z)-[3-(2-isopropyl-5-methyl-phenyl)-4-oxo-thiazolidin-2-ylidene]carbamoyl]amino]phenyl]-3-methyl-pyrazol-4-yl]-N-methyl-4-(trifluoromethoxy)benzamide]
- mortality at 800 ppm (Aedes aegypti): ≥ 50%
- mortality at 300 ppm (Dichromothrips corbetti; 72 h): ≥ 75%
- mortality at 800 ppm (Anthonomus grandis): ≥ 75%
- mortality at 800 ppm (Heliothis virescens): ≥ 75%
- mortality at 300 ppm (Plutella xylostella [1]; [7]): ≥ 75%
- mortality at 300 ppm (Spodoptera eridania; Spodoptera eridania, 96 h): ≥ 75%

Structure (SMILES): Cc1ccc(C(C)C)c(N2C(=O)CS/C2=N\C(=O)Nc2ccc(-n3nc(C)c(NC(=O)c4ccc(OC(F)(F)F)cc4)c3C)cc2Cl)c1 [Example C-4, N-[1-[3-chloro-4-[[(Z)-[3-(2-isopropyl-5-methyl-phenyl)-4-oxo-thiazolidin-2-ylidene]carbamoyl]amino]phenyl]-3,5-dimethyl-pyrazol-4-yl]-4-(trifluoromethoxy)benzamide]
- mortality at 800 ppm (Aedes aegypti): ≥ 50%
- mortality at 300 ppm (Dichromothrips corbetti; 72 h): ≥ 75%
- mortality at 800 ppm (Anthonomus grandis): ≥ 75%
- mortality at 800 ppm (Heliothis virescens): ≥ 75%
- mortality at 300 ppm (Plutella xylostella [1]; [7]): ≥ 75%
- mortality at 300 ppm (Spodoptera eridania; Spodoptera eridania, 96 h): ≥ 75%

Structure (SMILES): Cc1ccc(C(C)C)c(N2C(=O)CS/C2=N\C(=O)Nc2ccc(-n3cc(N(C)C(=O)c4ccc(OC(F)(F)F)cc4)c(C)n3)cc2)c1 [Example C-2, N-[1-[4-[[(Z)-[3-(2-isopropyl-5-methyl-phenyl)-4-oxo-thiazolidin-2-ylidene]carbamoyl]amino]phenyl]-3-methyl-pyrazol-4-yl]-N-methyl-4-(trifluoromethoxy)benzamide]
- mortality at 800 ppm (Aedes aegypti): ≥ 50%
- mortality at 300 ppm (Dichromothrips corbetti; [3]): ≥ 75%
- mortality at 800 ppm (Anthonomus grandis; [4]): ≥ 75%
- mortality at 800 ppm (Heliothis virescens; [4]): ≥ 75%
- mortality at 10 ppm (Plutella xylostella [1]; Plutella xylostella, foliar, 72 h, Table R-1 comparative data, dose 10 ppm, test species PLUTMA, procedure analogous to B6): 100%
- mortality at 300 ppm (Plutella xylostella [1]; [8]): ≥ 75%
- mortality at 300 ppm (Spodoptera eridania; [9]): ≥ 75%
- mortality at 10 ppm (Spodoptera eridania; Spodoptera eridania, 96 h, Table R-1 comparative data, dose 10 ppm, test species PRODER, procedure analogous to B7): 82.5%

Structure (SMILES): Cc1ccc(C(C)C)c(N/C(=N/C(=O)Nc2ccc(-n3nc(C)c(NC(=O)c4ccc(OC(F)(F)F)cc4)c3C)cc2Cl)SCOC(=O)C(C)C)c1 [Example C-130]
- mortality in comparison with untreated controls (Aedes aegypti): at least 50%
- mortality in comparison with untreated controls (Dichromothrips corbetti; [3]): at least 75%
- mortality in comparison with untreated controls (Anthonomus grandis; [4]): at least 75%
- mortality in comparison with untreated controls (Heliothis virescens; [4]): at least 75%
- mortality in comparison with untreated controls (Plutella xylostella [2]): at least 75%

Structure (SMILES): Cc1ccc(C(C)C)c(N2C(=O)CS/C2=N\C(=O)Nc2ccc(-n3cc(NC(=O)c4cc(F)c(F)c(F)c4)c(C)n3)cc2)c1 [Example C-23]
- mortality in comparison with untreated controls (Aedes aegypti): at least 50%
- mortality in comparison with untreated controls (Dichromothrips corbetti; [3]): at least 75%
- mortality in comparison with untreated controls (Anthonomus grandis; [4]): at least 75%
- mortality in comparison with untreated controls (Heliothis virescens; [4]): at least 75%
- mortality in comparison with untreated controls (Plutella xylostella [1]; [5]): at least 75%
- mortality in comparison with untreated controls (Spodoptera eridania; [6]): at least 75%

Structure (SMILES): Cc1ccc(C(C)C)c(N2C(=O)CS/C2=N\C(=O)Nc2ccc(-n3cc(NC(=O)c4ccc(OC(F)(F)F)cc4)c(C)n3)cc2C)c1 [Example C-1, N-[1-[4-[[(Z)-[3-(2-isopropyl-5-methyl-phenyl)-4-oxo-thiazolidin-2-ylidene]carbamoyl]amino]-3-methyl-phenyl]-3-methyl-pyrazol-4-yl]-4-(trifluoromethoxy)benzamide]
- mortality at 800 ppm (Aedes aegypti): ≥ 50%
- mortality at 300 ppm (Dichromothrips corbetti; [3]): ≥ 75%
- mortality at 800 ppm (Anthonomus grandis; [4]): ≥ 75%
- mortality at 800 ppm (Heliothis virescens; [4]): ≥ 75%
- mortality at 300 ppm (Plutella xylostella [1]; [8]): ≥ 75%
- mortality at 300 ppm (Spodoptera eridania; [9]): ≥ 75%

Structure (SMILES): Cc1ccc(C(C)C)c(N2C(=O)CS/C2=N\C(=O)Nc2ccc(-n3nc(C)c(NC(=O)c4ccc(OC(F)(F)F)cc4)c3C)cc2C)c1 [Example C-18]
- mortality in comparison with untreated controls (Aedes aegypti): at least 50%
- mortality in comparison with untreated controls (Dichromothrips corbetti; [3]): at least 75%
- mortality in comparison with untreated controls (Anthonomus grandis; [4]): at least 75%
- mortality in comparison with untreated controls (Heliothis virescens; [4]): at least 75%
- mortality in comparison with untreated controls (Plutella xylostella [1]; [5]): at least 75%
- mortality in comparison with untreated controls (Spodoptera eridania; [6]): at least 75%
